According to patent publication US20240376126A1, “PRMT5 INHIBITOR AND THE USE THEREOF” (CYTOSINLAB THERAPEUTICS CO., LTD., priority 2022, published 2024):
Read-outs that look alike come from different tables or passages of the source.

Assays:
[1] = system: HCT116 MTAP WT cells; test: Proliferation inhibition of HCT116 cells in vitro (CellTiter Glo, 6 days); format: cell-based; conditions: read-out: Cell proliferation inhibition rate HCT116 MTAP WT IC50 (nm)
[2] = target: PRMT5 MTA (Homo sapiens (Human), UniProt O14744); test: PRMT5 inhibitory activity assay in vitro, enzyme solution with MTA ([3H]-SAM Flashplate); format: biochemical; conditions: MTA 2.0 um; read-out: Enzyme activity inhibition rate PRMT5 MTA (2.0 um) IC50 (nm)
From the text: Biological Test Example 1 PRMT5 Inhibitory Activity Assay In Vitro
PRMT5 (Active Motiv, catalog number 31921), [^3H]—SAM (Perkin Elmer, catalog number NET155V001MC), SAM (Sigma, catalog number A7007), MTA (Sigma, catalog number D5011), SAH (Sigma, catalog number A9384), 384-well plate (Perkin Elmer, catalog number 6007299), Echo 550 (manufacturer: Labcyte, model: Echo 550), 384-well Flashplate (manufacturer: Perkin Elmer, model: SMP410A001PK)
• (1) 1× Assay buffer (modified Tris buffer) was configured. • (2) Dilute compound: the compound was dissolved in 100% DMSO and the compound solution was added to a 384-well plate using Echo 550. • (3) Configure enzyme solution: PRMT5 was added to 1× assay buffer to prepare enzyme solution 1; PRMT5 and MTA was added to 1× assay buffer to prepare enzyme solution 2. • (4) Configure substrate solution: peptide segments and [3H]—SAM was added to 1× assay buffer. • (5) 15 μL of enzyme solution was added to the 384-well plate, and 15 μL of 1× assay buffer was added to the negative control well, and incubated at room temperature for 30 minutes. • (6) 15 μL of substrate solution was added to each well, and incubated at room temperature for 90 minutes. • (7) Configure termination reaction solution: pre-cooled SAM was added to 1× assay buffer. • (8) 10 μL of termination reaction solution was added to each well to terminate the reaction. • (9) 25 μL/well of the mixed solution was transferred to Flashplate and incubated for 1 hour at room temperature. • (10) the Flashplate three was washed times with dH2O+0.1% Tween-20 solution. • (11) the radiometric values was readed with Microbeta.
• (1) The raw data were converted to % inhibition according to Equation 1.
%inhibition=(Max−Signal)/(Max−Min)*100 Equation 1: • (2) the % inhibition data were entered into XL-Fit Equation 2 to obtain IC50 value:
Y=Bottom+(Top−Bottom)/(1+(IC50/X)[…]) Equation 2: • wherein, Y is the % inhibition, and X is the concentration of the compound.

[3] = system: HCT116-MTAP-KO (MTAP null) cells; test: Proliferation inhibition of HCT116 MTAP-KO cells in vitro (CellTiter Glo, 6 days); format: cell-based; conditions: read-out: Cell proliferation inhibition rate HCT116-MTAP null IC50 (nm)

Chain of PRMT5 MTA (O14744 whole entry, looked up): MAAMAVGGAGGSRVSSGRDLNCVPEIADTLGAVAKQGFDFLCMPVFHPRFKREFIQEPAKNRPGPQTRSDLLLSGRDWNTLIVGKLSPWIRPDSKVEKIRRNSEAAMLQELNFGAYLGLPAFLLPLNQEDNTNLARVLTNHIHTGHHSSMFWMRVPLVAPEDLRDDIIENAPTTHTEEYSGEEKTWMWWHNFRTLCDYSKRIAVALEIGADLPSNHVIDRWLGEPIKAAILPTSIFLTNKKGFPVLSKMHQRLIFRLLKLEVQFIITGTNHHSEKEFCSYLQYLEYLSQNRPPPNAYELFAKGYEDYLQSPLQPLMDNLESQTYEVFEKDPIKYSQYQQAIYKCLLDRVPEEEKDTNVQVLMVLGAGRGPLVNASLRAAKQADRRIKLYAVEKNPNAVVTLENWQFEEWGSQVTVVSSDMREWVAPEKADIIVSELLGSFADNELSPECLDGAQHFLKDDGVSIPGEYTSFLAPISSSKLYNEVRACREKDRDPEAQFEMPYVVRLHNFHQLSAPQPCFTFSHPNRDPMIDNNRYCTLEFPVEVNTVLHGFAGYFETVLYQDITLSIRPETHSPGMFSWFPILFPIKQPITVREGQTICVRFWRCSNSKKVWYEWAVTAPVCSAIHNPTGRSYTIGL
Chain of PRMT5 MTA (Q9BQA1 whole entry partner, looked up): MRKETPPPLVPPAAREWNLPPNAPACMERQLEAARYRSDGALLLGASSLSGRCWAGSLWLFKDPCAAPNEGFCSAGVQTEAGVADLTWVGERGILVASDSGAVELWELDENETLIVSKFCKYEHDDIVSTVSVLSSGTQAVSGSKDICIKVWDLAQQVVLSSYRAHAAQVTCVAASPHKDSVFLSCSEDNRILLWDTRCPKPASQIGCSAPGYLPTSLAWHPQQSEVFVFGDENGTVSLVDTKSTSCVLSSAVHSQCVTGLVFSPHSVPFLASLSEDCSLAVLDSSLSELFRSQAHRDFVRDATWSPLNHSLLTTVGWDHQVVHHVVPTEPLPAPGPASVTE

Structure (SMILES) | IC50 ([1]; Homo sapiens, HCT-116, 144 h) | IC50 ([3]; HCT116-MTAP null, 144 h) | IC50 [3] | IC50 [1] | IC50 [2] | IC50 ([3]; 144 h)
CC(c1ncccn1)N(Cc1cn2ccccc2n1)C(=O)c1ccc2nc(N)c3c(c2c1)CCC3 (stereo not shown) [Example 1, 4-Amino-N-(pyrazolo[1,5-a]pyridin-2-ylmethyl)-N-(1-(pyrimidin-2-yl)ethyl)-2,3-dihydro-1H-cyclopentadieno[c]quinolin-8-carboxamide] | 1000 to 10000 nM | – | – | – | 5.1 nM | < 100 nM
CCN(Cc1cn2ccccc2n1)C(=O)c1cc2c(cc1F)nc(N)c1cnn(C)c12 [Example 2] | 1000 to 10000 nM | – | – | – | 3 nM | < 100 nM
CC(C)CN(Cc1cn2cc(C(F)(F)F)ccc2n1)C(=O)c1ccc2nc(N)c3cnn(C)c3c2c1 [Example 4] | 1000 to 10000 nM | – | – | – | 1.7 nM | < 100 nM
COCC(C1CC1)N(Cc1nc2ccccc2s1)C(=O)c1ccc2nc(N)c3c(c2c1)CCC3 (stereo not shown) [Example 147] | 1000 to 10000 nM | – | – | – | 2.9 nM | 100 to 1000 nM
Cc1cc2cc(C(=O)N(Cc3nc4ccccc4s3)C34CC(C3)C4)ccc2nc1N [Example 148] | – | – | – | – | 2.6 nM | –
COCC(C1CC1)N(Cc1nc2ccccc2[nH]1)C(=O)c1ccc2nc(N)c(C)cc2c1 (stereo not shown) [Example 127] | 1000 to 10000 nM | – | – | – | 3.7 nM | < 100 nM
CC(C)CN(Cc1nc2ccc(C(F)(F)F)cc2[nH]1)C(=O)c1ccc2nc(N)c3cnn(C)c3c2c1 [Example 132] | 1000 to 10000 nM | – | – | – | 4.4 nM | < 100 nM
CCN(Cc1cn2ccccc2n1)C(=O)c1ccc2nc(N)c3c(c2c1)CO[C@H]3C [Example 47] | 1000 to 10000 nM | < 100 nM | – | – | – | –
[2H]C([2H])([2H])N(Cc1cn2cc(C(F)(F)F)ccc2n1)C(=O)c1ccc2nc(N)c3c(c2c1)COC3C (stereo not shown) [Example 50] | 1000 to 10000 nM | 100 to 1000 nM | < 100 nM | – | – | –
Cn1ncc2c(N)nc3cc(F)c(C(=O)N(Cc4cn5ccccc5n4)CC(F)F)cc3c21 [Example 26] | 1000 to 10000 nM | < 100 nM | – | – | – | –
CCN(Cc1cn2ccccc2n1)C(=O)c1ccc2nc(N)c3c(cnn3C)c2c1 [Example 29] | 1000 to 10000 nM | 100 to 1000 nM | – | – | – | –
CC1OCc2c1c(N)nc1ccc(C(=O)N3[C@H](C)COC[C@@H]3c3cn4ccccc4n3)cc21 (stereo partly shown) [Example 64] | 1000 to 10000 nM | 100 to 1000 nM | – | – | – | –
C[C@@H]1OCc2c1c(N)nc1ccc(C(=O)N(Cc3cn4c(C(F)(F)F)cccc4n3)c3cnn(C)c3)cc21 [Example 73] | 1000 to 10000 nM | < 100 nM | – | – | – | –
CCN(Cc1cn2ccccc2n1)C(=O)c1cc2c3c(c(N)nc2cc1F)COC3 [Example 86] | 1000 to 10000 nM | < 100 nM | – | – | – | –
CC1OCc2c1c(N)nc1ccc(C(=O)N(Cc3cn4ccccc4n3)c3cnn(C)c3)cc21 (stereo not shown) [Example 57] | 1000 to 10000 nM | 100 to 1000 nM | – | – | – | –

Further lines, with some results ahead:

IC50 ([1]; Homo sapiens, HCT-116, 144 h) | IC50 ([3]; HCT116-MTAP null, 144 h) | IC50 [3] | IC50 [1] | Structure (SMILES) | IC50 [2] | IC50 ([3]; 144 h)
1000 to 10000 nM | 100 to 1000 nM | – | – | Cc1ncn2c1c(N)nc1cc(F)c(C(=O)N(Cc3cn4cc(C#N)ccc4n3)c3cnn(C)c3)cc12 [Example 253] | – | –
1000 to 10000 nM | 100 to 1000 nM | – | – | Cc1cn2c(n1)c(N)nc1cc(F)c(C(=O)N(Cc3cn4ccccc4n3)CC(C)C)cc12 [Example 158] | – | –
1000 to 10000 nM | 100 to 1000 nM | – | – | Cc1ncc2c(N)nc3cc(F)c(C(=O)N(Cc4cn5ccccc5n4)c4cccnc4)cc3n12 [Example 199] | – | –
1000 to 10000 nM | < 100 nM | – | – | Cc1nn(C)cc1N(Cc1cn2cc(C(F)(F)F)ccc2n1)C(=O)c1ccc2nc(N)c3c(c2c1)OCC3 [Example 109] | – | –
1000 to 10000 nM | < 100 nM | – | – | Cc1ncc2c(N)nc3cc(F)c(C(=O)N(Cc4nc5ccc(S(F)(F)(F)(F)F)cc5[nH]4)CC(C)C)cc3n12 [Example 139] | – | –
– | – | 100 to 1000 nM | 1000 to 10000 nM | Cc1ncc2c(N)nc3cc(F)c(C(=O)N(Cc4nc5ccc(C(F)(F)F)cc5[nH]4)c4ccnn4C)cc3n12 [Example 142] | – | –
100 to 1000 nM | < 100 nM | – | – | Cc1cn2c(n1)c(N)nc1cc(F)c(C(=O)N3C(C)COC[C@@H]3c3cn4cc(C(F)(F)F)ccc4n3)cc12 (stereo partly shown) [Example 170] | – | –
1000 to 10000 nM | 100 to 1000 nM | – | – | Cc1ncc2c(N)nc3cc(F)c(C(=O)N(Cc4cn5cc(CN6CCOCC6)ccc5n4)c4ccnn4C)cc3n12 [Example 243] | – | –
